Laboratory results reported in US12048691B2 (SPERO THERAPEUTICS, INC., priority 2020, dated 2024).
≈ marks a conversion by molar mass, not a printed value. Like-named read-outs stand apart in the source and are kept apart here. Marks after values point to notes of the source that are not given here.

Experiments:
[1] = test system: Enterobacterales overproducing AmpC; assay: Broth microdilution susceptibility of isolates overexpressing AmpC; format: cell-based
Method: (§1) Frozen-form broth microdilution panels were manufactured by JMI Laboratories and contained cation-adjusted Mueller-Hinton broth. Quality assurance was performed by sterility checks, colony counts, and testing CLSI recommended quality control reference strains.

[2] = test system: P. aeruginosa isolates that overproduced AmpC; assay: as above; format: cell-based; settings: P. aeruginosa (32)
Method: as §1

[3] = test system: E. coli; assay: Broth microdilution MIC against characterized subsets of UTI E. coli (2018-2020); format: cell-based; settings: for MIC50 / MIC90: Escherichia coli; for MIC50: read-out: MIC50; for MIC90: read-out: MIC90
From the text: Isolates were collected from medical centers in all 9 US Census Regions and tested by broth microdilution. MIC interpretation was based on CLSI. Isolates that met MIC criteria were subjected to genome sequencing, followed by screening of extended-spectrum b-lactamase (ESBL) genes and epidemiology typing (MLST).

[4] = test system: K. pneumoniae; assay: Broth microdilution against US UTI pathogens 2019-2020; format: cell-based; settings: K. pneumoniae (511); cefuroxime: oral breakpoint
Method: (§2) This study assessed the in vitro activity of tebipenem and comparator agents against Enterobacterales (ENT) responsible for UTIs in the US during 2019-2020. A total of 3,576 ENT recovered from urine samples during the 2019-2020 STEWARD Surveillance Program were included in the study. Isolates were collected from medical centers in all 9 US Census Regions and were centrally tested for susceptibility by reference broth microdilution method. MIC interpretation was performed based on CLSI criteria.

[5] = test system: E. coli; assay: as above; format: cell-based; settings: E. coli (2,339); cefuroxime: oral breakpoint
Method: as §2

[6] = test system: Enterobacterales (ENT); assay: as above; format: cell-based; settings: All (3,567); cefuroxime: oral breakpoint
Method: as §2

[7] = test system: P. mirabilis; assay: as above; format: cell-based; settings: P. mirabilis (235), cefuroxime: oral breakpoint
Method: as §2

[8] = Particle size distribution of tebipenem pivoxil HBr batches by sieve method; format: physicochemical
[9] = Enterobacterales (36), second cefuroxime line, footnote c (not given)

Structure (SMILES): C[C@H]1[C@H](NC(=O)/C(=N\OC(C)(C)C(=O)O)c2csc(N)n2)C(=O)N1S(=O)(=O)O [Aztreonam]
- CLSI %1 ([1]; Enterobacterales (36)): 14.3%
- CLSI % R ([1]; Enterobacterales (36)): 54.3%
- CLSI % S ([1]; Enterobacterales (36)): 31.4%
- MIC50 ([1]; Enterobacterales (36), read-out: MIC50): > 16 µg/mL
- MIC90 ([1]; Enterobacterales (36), read-out: MIC90): > 16 µg/mL
- CLSI %1 [2]: 31.2%
- CLSI % R [2]: 50.0%
- CLSI % S [2]: 18.8%

Structure (SMILES): Cc1nnc(SCC2=C(C(=O)O)N3C(=O)[C@@H](NC(=O)Cn4cnnn4)[C@H]3SC2)s1 [CFZ, cefazolin]
- % susceptible by CLSI M100 criteria ([3]; CTX-M a): 0.0%
- % susceptible by CLSI M100 criteria ([3]; ESBL (360)): 0.6%
- MIC50 ([3]; CTX-M a): > 32 µg/mL
- MIC90 ([3]; CTX-M a): > 32 µg/mL
- MIC50 ([3]; ESBL (360)): > 32 µg/mL
- MIC90 ([3]; ESBL (360)): > 32 µg/mL
- MIC50 ([3]; Non-ESBL (2035)): 2 µg/mL (≈ 4.4 µM)
- MIC90 ([3]; Non-ESBL (2035)): 8 µg/mL (≈ 17.6 µM)
- % susceptible by CLSI M100 criteria ([3]; Non-ESBL (2035)): 96.4%

Structure (SMILES): CO/N=C(\C(=O)N[C@@H]1C(=O)N2C(C(=O)[O-])=C(C[N+]3(C)CCCC3)CS[C@H]12)c1csc(N)n1 [Cefepime]
- MIC50 [1]: 0.5 µg/mL (≈ 1.04 µM)
- MIC90 [1]: 128 µg/mL (≈ 266 µM)
- CLSI %1 [2]: 40.6%
- CLSI % R [2]: 12.5%
- CLSI % S [2]: 46.9%

Structure (SMILES): CO/N=C(\C(=O)N[C@@H]1C(=O)N2C(C(=O)O)=C(CSc3nc(=O)c(=O)[nH]n3C)CS[C@H]12)c1csc(N)n1 [Ceftriaxone, ceftriaxone]
- % susceptible by CLSI M100 criteria ([3]; CMYb (33)): 0.0%
- % susceptible by CLSI M100 criteria ([3]; CTX-M a): 0.0%
- % susceptible by CLSI M100 criteria ([3]; DHA(7)): 28.6%
- % susceptible by CLSI M100 criteria ([3]; ESBL (360)): 6.4%
- MIC50 ([3]; CTX-M a): > 8 µg/mL
- MIC90 ([3]; CTX-M a): > 8 µg/mL
- MIC50 ([3]; DHA(7)): 2 µg/mL (≈ 3.61 µM)
- MIC50 ([3]; ESBL (360)): > 8 µg/mL
- MIC90 ([3]; ESBL (360)): > 8 µg/mL
- MIC50 ([3]; Non-ESBL (2035)): ≤ 0.06 µg/mL
- MIC90 ([3]; Non-ESBL (2035)): 0.12 µg/mL (≈ 0.216 µM)
- % susceptible by CLSI M100 criteria ([3]; Non-ESBL (2035)): 100%
- % susceptible by CLSI M100 criteria ([3]; Non-ST131 (203)): 37.9%
- % susceptible by CLSI M100 criteria ([3]; ST131 (222)): 20.3%
- MIC50 [1]: > 8 µg/mL
- MIC90 [1]: > 8 µg/mL
- CLSI %1 ([1]; Enterobacterales (36)): 13.9%
- CLSI % R ([1]; Enterobacterales (36)): 63.9%
- CLSI % S ([1]; Enterobacterales (36)): 22.2%

Structure (SMILES): CO/N=C(\C(=O)N[C@@H]1C(=O)N2C(C(=O)O)=C(COC(N)=O)CS[C@H]12)c1ccco1 [Cefuroxime]
- % susceptible; CLSI [4]: (75.3) %
- % susceptible; CLSI [5]: (63.1) %
- % susceptible; CLSI [6]: (63.5) %
- % susceptible; CLSI [7]: (94.4) %
- % susceptible; CLSI ([7]; listed as cefuroxime): 94.4%
- MIC50 [1]: > 64 µg/mL
- MIC90 [1]: > 64 µg/mL
- CLSI %1 ([1]; Enterobacterales (36)): 5.6%
- CLSI % R ([1]; Enterobacterales (36)): 94.4%
- CLSI % S ([1]; Enterobacterales (36)): 0.0^b %
- CLSI %1 [1, 9]: 5.6%
- CLSI % R [1, 9]: 94.4%
- CLSI % S [1, 9]: 0.0^c %

Structure (SMILES): C[C@@H](O)[C@H]1C(=O)N2C(C(=O)O)=C(SCCN=CN)C[C@H]12 [Imipenem]
- MIC50 [1]: 0.25 µg/mL (≈ 0.835 µM)
- MIC90 [1]: 0.5 µg/mL (≈ 1.67 µM)
- CLSI %1 ([1]; Enterobacterales (36)): 0.0%
- CLSI % R ([1]; Enterobacterales (36)): 0.0%
- CLSI % S ([1]; Enterobacterales (36)): 100.0%
- MIC50 ([1]; Enterobacterales (36)): 0.25 μ/ml
- MIC90 ([1]; Enterobacterales (36)): 0.5 μ/ml
- MIC range ([1]; Enterobacterales (36)): ≤0.12 to 1 μ/ml
- CLSI %1 [2]: 0.0%
- CLSI % R [2]: 3.1%
- CLSI % S [2]: 96.9%
- MIC range [2]: 0.5 to 8 μ/ml

Structure (SMILES): Br.C[C@@H](O)[C@H]1C(=O)N2C(C(=O)OCOC(=O)C(C)(C)C)=C(SC3CN(C4=NCCS4)C3)[C@H](C)[C@H]12 [Lot 1, Comil-ed]
- particle size distribution, 45 um< [8]: 35%
- particle size distribution, 75 um< [8]: 27%
- particle size distribution, 106 um< [8]: 16%
- particle size distribution, 150 um< [8]: 1%
- particle size distribution, 300 um< [8]: 0%
- particle size distribution, <45 um [8]: 21%

Structure (SMILES): Br.C[C@@H](O)[C@H]1C(=O)N2C(C(=O)OCOC(=O)C(C)(C)C)=C(SC3CN(C4=NCCS4)C3)[C@H](C)[C@H]12 [Lot 2]
- particle size distribution, 45 um< [8]: 46%
- particle size distribution, 75 um< [8]: 6%
- particle size distribution, 106 um< [8]: 6%
- particle size distribution, 150 um< [8]: 2%
- particle size distribution, 300 um< [8]: 0%
- particle size distribution, <45 um [8]: 40%
